Source: US4338451A, “5-Hydroxymethyl oxazolidinones” (Delalande S.A., priority 1977, dated 1982)

Columns and labels:
[1] = system: ptosis observed one hour after an intravenous injection (2 mg/kg) of reserpine; experiment: Test B: antagonism of the ptosis caused by reserpine in mice; type: in vivo; details: Mus musculus, po, 1 h, p.o., reserpine 2 mg/kg intravenous, read-out: Test B ED 50
Protocol: Antagonism with respect to the ptosis observed one hour after an intravenous injection (2 mg/kg) of reserpine given to mice, following the protocol described by C.

[2] = system: generalized trembling caused by an interperitoneal injection (200 mg/kg) of dl-5-hydroxytryptophane; experiment: Test A: potentiation in mice of generalized trembling caused by dl-5-hydroxytryptophane; type: in vivo; details: Mus musculus, po, dl-5-hydroxytryptophane 200 mg/kg intraperitoneal, read-out: Test A ED 50
Protocol: Potentiation in mice of generalized trembling caused by an interperitoneal injection (200 mg/kg) of dl-5-hydroxytryptophane, following the protocol described by C. GOURET and G. RAYNAUD in J. Pharmacol. (Paris), (1974) 5, 231.

[3] = system: pontogeniculo-occipital points (P.G.O.) caused by an intravenous injection (0.5 mg/kg) of reserpine; experiment: Test C: reduction in the density of pontogeniculo-occipital points (P.G.O.) caused by reserpine in cats; type: in vivo; details: Felis catus, ip, reserpine 0.5 mg/kg intravenous, read-out: Test C ED 50
Protocol: Reduction in the density of pontogeniculo-occipital points (P.G.O.) caused by an intravenous injection (0.5 mg/kg) of reserpine given to cats, following the protocol described by A. COSTON and C. GOURET in J. Pharmacol. (Paris) (1976), 7, 409.

Acute toxicity in mice = details: mouse, in vivo, po

| SMILES | ED50 [1] | ED50 [2] | ED50 [3] | mortality (Acute toxicity in mice; 2000 mg/kg) | mortality (Acute toxicity in mice; 1000 mg/kg) | LD50 (Acute toxicity in mice) |
| --- | --- | --- | --- | --- | --- | --- |
| COC(=O)Nc1ccc(COc2ccc(N3CC(CO)OC3=O)cc2)cc1 (stereo not drawn) [780 182] | 25 mg/kg | 40 mg/kg |  |  |  |  |
| O=C1OC(CO)CN1c1ccc(OCC2=CCC=CC2)cc1 (stereo not drawn) [770 984] | 25 mg/kg | 10 mg/kg |  |  |  |  |
| O=C1OC(CO)CN1c1ccc(CCc2cccc(Cl)c2)cc1 (stereo not drawn) [771 181] | 6.25 mg/kg | 6.25 mg/kg |  |  |  |  |
| Cc1cccc(N2CC(CO)OC2=O)c1 (stereo not drawn) [TOLOXATONE, reference compound] | 50 mg/kg | 60 mg/kg | 28 mg/kg |  |  |  |
| O=C1OC(CO)CN1c1ccc(OCc2cccs2)cc1 (stereo not drawn) [770 673] | 35 mg/kg | 16 mg/kg | 8 mg/kg |  |  |  |
| CC(C)(C)CCOc1ccc(N2CC(CO)OC2=O)cc1 (stereo not drawn) [771 246] | 23 mg/kg | 17 mg/kg |  |  |  |  |
| O=C1OC(CO)CN1c1ccc(OCc2ccc(F)c([N+](=O)[O-])c2)cc1 (stereo not drawn) [770 955] | 7 mg/kg | 13 mg/kg |  | 17% |  |  |
| CC(COc1ccc(N2CC(CO)OC2=O)cc1)=NO (stereo not drawn) [770 126, oxime of 3-(p-acetylmethyloxyphenyl) 5-hydroxymethyl 2-oxazolidinone] | 11 mg/kg | 8 mg/kg | 16.5 mg/kg |  |  |  |
| CC(=O)Nc1ccc(COc2ccc(N3CC(CO)OC3=O)cc2)cc1 (stereo not drawn) [770 569] | 2.5 mg/kg | 5 mg/kg | 6 mg/kg |  |  |  |
| CC1(COc2ccc(N3CC(CO)OC3=O)cc2)CCCC1 (stereo not drawn) [780 076] | 7 mg/kg | 2.3 mg/kg |  |  |  |  |
| O=C1OC(CO)CN1c1ccc(OCC2CCC2)cc1 (stereo not drawn) [770 788] | 12.5 mg/kg | 6.25 mg/kg |  |  |  |  |
| N#Cc1cc(COc2ccc(N3CC(CO)OC3=O)cc2)ccc1F (stereo not drawn) [770 789] | 2 mg/kg | 3 mg/kg |  |  |  |  |
| CC(=O)COc1cccc(N2CC(CO)OC2=O)c1 (stereo not drawn) [770 230] | 6.25 mg/kg |  | 16 mg/kg |  |  |  |
| N#Cc1cc(COc2ccc(N3CC(CO)OC3=O)cc2)cc([N+](=O)[O-])c1 (stereo not drawn) [771 125] | 1.56 mg/kg | 3.12 mg/kg |  |  |  |  |
| O=C1OC(CO)CN1c1ccc(OCc2cccc([N+](=O)[O-])c2)cc1 (stereo not drawn) [770 234] | 0.7 mg/kg | 1.5 mg/kg | 9 mg/kg |  | 0% |  |
| O=C1OC(CO)CN1c1ccc(OCc2cccnc2)cc1 (stereo not drawn) [770 221] | 3.12 mg/kg | 11.8 mg/kg | 15 mg/kg |  |  |  |
| O=C1OC(CO)CN1c1ccc(OCC2OCCS2)cc1 (stereo not drawn) [780 112] | 5.2 mg/kg | 5 mg/kg |  |  |  |  |

| SMILES | ED50 [1] | ED50 [2] | ED50 [3] | mortality (Acute toxicity in mice; 2000 mg/kg) | mortality (Acute toxicity in mice; 1000 mg/kg) | LD50 (Acute toxicity in mice) |
| --- | --- | --- | --- | --- | --- | --- |
| N#CCOc1cccc(N2CC(CO)OC2=O)c1 (stereo not drawn) [770 231, 5-hydroxymethyl 3-m-cyanomethyloxyphenyl 2-oxazolidinone] | 50 mg/kg | 40 mg/kg | 14 mg/kg |  |  |  |
| O=C1OC(CO)CN1c1ccc(OCC2OCCO2)cc1 (stereo not drawn) [770 962] | 50 mg/kg | 26 mg/kg |  |  |  |  |
| O=C1OC(CO)CN1c1ccc(OCc2ccc(Cl)c([N+](=O)[O-])c2)cc1 (stereo not drawn) [770 672] | 19 mg/kg | 25 mg/kg |  |  |  |  |
| CCC(CC)COc1ccc(N2CC(CO)OC2=O)cc1 (stereo not drawn) [771 197] | 16 mg/kg | 25 mg/kg |  |  |  |  |
| COCOc1ccc(N2CC(CO)OC2=O)cc1 (stereo not drawn) [760 904] | 50 mg/kg | 50 mg/kg | 8.5 mg/kg |  |  |  |
| O=C1OC(CO)CN1c1ccc(C(F)(F)F)cc1 (stereo not drawn) [770 152, 5-hydroxymethyl 3-p-trifluoromethylphenyl 2-oxazolidinone] | 25 mg/kg | 20 mg/kg | 15 mg/kg |  |  |  |
| CC(C)C(=O)COc1ccc(N2CC(CO)OC2=O)cc1 (stereo not drawn) [770 154] | 50 mg/kg | 50 mg/kg | 20 mg/kg |  |  |  |
| O=C1OC(CO)CN1c1ccc(OCC2CC2)cc1 (stereo not drawn) [770 388] | 12.5 mg/kg | 9 mg/kg | 4.5 mg/kg |  |  |  |
| O=C1OC(CO)CN1c1ccc(OCc2cccc(I)c2)cc1 (stereo not drawn) [771 321] | 20 mg/kg | 25 mg/kg |  |  |  |  |
| O=C1OC(CO)CN1c1ccc(OCc2cc(Cl)cc(Cl)c2)cc1 (stereo not drawn) [770 416] | 10 mg/kg | 6.2 mg/kg | 3 mg/kg |  |  |  |
| O=C1OC(CO)CN1c1ccc(OCC2=CCCC2)cc1 (stereo not drawn) [770 466] | 6.2 mg/kg | 9.6 mg/kg | 9 mg/kg |  |  |  |
| CC(C)CCOc1ccc(N2CC(CO)OC2=O)cc1 (stereo not drawn) [771 082] | 0.7 mg/kg | 1.3 mg/kg |  |  |  | > 2000 mg/kg |
| CC(C)(C)COc1ccc(N2CC(CO)OC2=O)cc1 (stereo not drawn) [771 249] | 50 mg/kg | 22.5 mg/kg |  |  |  |  |
| O=C1OC(CO)CN1c1ccc(OCCN2CCOCC2)cc1 (stereo not drawn) [750 601] | 8 mg/kg | 70 mg/kg | 31 mg/kg |  |  |  |
| O=C1OC(CO)CN1c1ccc(OCC2CCOCC2)cc1 (stereo not drawn) [771 301] | 3 mg/kg | 1.9 mg/kg |  |  |  | > 2000 mg/kg |
| O=C1OC(CO)CN1c1ccc(OCC2CCCCCC2)cc1 (stereo not drawn) [780 030] | 5.3 mg/kg | 3 mg/kg |  |  |  |  |
